Converted amounts (≈) assume the structure as drawn. “And” between values parts separate entries of the source, which are not always exact repeats. Equal entries are not always repeated. Where two headings read alike, the source gives them in different places.
What was measured:
[1] = system: locomotor activity in mice; assay: Locomotor activity in mice, open field (Digiscan activity monitor); type: in vivo, mouse
[2] = target: T1, rat A1 cortical receptors (Rattus norvegicus, UniProt P25099); assay: Radioligand binding, [3H]N6-phenylisopropyladenosine ([3H]PIA), rat cortical A1 receptors; settings: for Ki: vs [3H]PIA (1 nM), read-out: Ki (A1); for inhibition at 10 µM: 1.5 h, at 10^-5, vs [3H]PIA, read-out: Percent displacement of specific binding (A1)
T1 construct: Rat cerebral cortical membranes and striatal membranes were prepared; from tissue; host or cells: rat cerebral cortex membranes
T1 sequence (P25099 1-326): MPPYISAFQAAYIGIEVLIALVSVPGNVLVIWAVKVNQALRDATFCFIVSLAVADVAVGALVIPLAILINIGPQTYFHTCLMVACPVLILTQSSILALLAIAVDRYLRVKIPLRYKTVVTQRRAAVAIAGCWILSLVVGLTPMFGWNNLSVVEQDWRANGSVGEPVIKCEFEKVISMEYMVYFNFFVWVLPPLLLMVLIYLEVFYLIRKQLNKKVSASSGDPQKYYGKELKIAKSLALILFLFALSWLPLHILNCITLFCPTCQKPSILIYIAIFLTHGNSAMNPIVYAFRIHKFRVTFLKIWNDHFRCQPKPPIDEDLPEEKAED

[3] = Aqueous solubility; settings: for solubility kinetic: water, 0.5% dmso, organic solvent or mixture
[4] = target: rat striatal A2a receptors (Rattus norvegicus, UniProt P30543); assay: Radioligand binding, [3H]CGS 21680, rat striatal A2a receptors; parameters: Rat cerebral cortical membranes and striatal membranes were prepared; from tissue; host or cells: rat striatal membranes; settings: for A2-selectivity: rat brain binding, this study
[5] = target: A2 receptors, rat striatum; settings: vs [3H]NECA in rat striatum; read-out: Ki (A2a), Shimada et al.; cited from earlier work
[6] = Ki value / affinity at A2 receptors
[7] = Table I, vs [3H]CGS21680 (5 nM), rat striatal A2 receptors, read-out: Ki (A2a)
[8] = vs [3H]CGS 21680, read-out: Ki value / affinity at A2 receptors
[9] = Table IV, vs [3H]CGS21680 (5 nM), read-out: Ki (A2)
[10] = Table III, vs [3H]CGS21680 (5 nM), read-out: Ki (A2)

rat striatal A2a receptors, sequence (P30543 whole entry): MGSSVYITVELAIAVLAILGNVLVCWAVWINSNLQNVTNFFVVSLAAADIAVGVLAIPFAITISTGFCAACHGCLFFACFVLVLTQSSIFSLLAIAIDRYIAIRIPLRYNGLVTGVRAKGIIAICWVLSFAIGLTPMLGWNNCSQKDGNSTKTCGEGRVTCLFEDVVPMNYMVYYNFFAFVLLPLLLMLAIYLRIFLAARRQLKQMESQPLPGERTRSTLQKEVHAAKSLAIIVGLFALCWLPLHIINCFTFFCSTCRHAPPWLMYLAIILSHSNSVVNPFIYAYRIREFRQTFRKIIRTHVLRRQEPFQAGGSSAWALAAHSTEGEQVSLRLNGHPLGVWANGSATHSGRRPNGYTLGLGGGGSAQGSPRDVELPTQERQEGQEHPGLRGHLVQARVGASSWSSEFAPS

Compound | Ki ([2]; Table I, rat A1 receptors) [µM] | A1/A2a ratio ([4]; Table I, ratio of Ki values) | Ki [4, 7] [µM] | further results
OC[C@H]1O[C@@H](n2cnc3c(NC4CCCCC4)ncnc32)[C@H](O)[C@@H]1O [CHA, N^6 -cyclohexyladenosine, reference compound] | – | – | – | total distance traveled ([1]; CHA control 100 μg/kg i.p., n=9): 2090±438 cm/30 min; ED50 ([1]; Mus musculus, ip, CHA, i.p., read-out: ED50 for locomotor depression): 0.1 mg/kg
CCCn1c(=O)c2[nH]c(C3CCCC3)nc2n(CCC)c1=O [CPX, 8-cyclopentyl-1,3-dipropyl-xanthine, reference compound] | – | – | – | locomotor stimulation, in words ([1]; mice): minimal depressant effect on locomotor activity
Cn1c(=O)c2c(nc(/C=C/c3cccc(NC(=O)CCC(=O)O)c3)n2C)n(C)c1=O [Compound 24, 1,3,7-Trimethyl-8-(3-succinylaminostyryl)xanthine] | 35.1 | 250 | 0.143 ± 0.045 | solubility ([3]; 0.1 m k2hpo4): 19 mM (≈ 7820 µg/mL); solubility ([3]; 0.1 m potassium phosphate, pH 7.4): 19 mM (≈ 7820 µg/mL); Ki [4, 6]: 0.134 µM
COc1cc(/C=C/c2nc3c(c(=O)n(C)c(=O)n3C)n2C)cc(OC)c1OC(C)=O [Compound 36] | 6.33 | 93 | 0.068 ± 0.022 | A2-selectivity [4]: 93 fold
COc1cc(/C=C/c2nc3c(c(=O)n(C)c(=O)n3C)n2C)cc(OC)c1OCc1ccccc1 [Compound 37, 1,3,7-Trimethyl-8-(3,5-dimethoxy-4-benzyloxystyryl) xanthine] | 4.12 | 30 | 0.139 ± 0.007 | –
COc1cc(/C=C/c2nc3c(c(=O)n(C)c(=O)n3C)n2C)cc(OC)c1OCCCCN [Compound 38, 1,3,7-Trimethyl-8-[3,5-dimethoxy-4-[4-aminobutyloxy]styryl]xanthine] | 6.17 | 36 | 0.173 ± 0.043 | –
COc1cc(/C=C/c2nc3c(c(=O)n(C)c(=O)n3C)n2C)cc(OC)c1OCCCCNC(=O)OC(C)(C)C [Compound 39, 1,3,7-Trimethyl-8-[3,5-dimethoxy-4-[4-(tert-butyloxycarbonylamino)butyloxy]styryl]xanthine] | 11 | 42 | 0.265 ± 0.105 | –
COc1cc(/C=C/c2nc3c(c(=O)n(C)c(=O)n3C)n2C)cc(OC)c1OC/C=C/CN [Compound 40] | 6.28 | 28 | 0.228 ± 0.02 | –
COc1cc(/C=C/c2nc3c(c(=O)n(C)c(=O)n3C)n2C)cc(OC)c1OC/C=C/CNC(C)=O [Compound 41] | – | > 50 | 0.216 ± 0.04 | inhibition at 10 µM [2]: 17 ± 7%
COc1cc(/C=C/c2nc3c(c(=O)n(C)c(=O)n3C)n2C)cc(OC)c1OC/C=C/CNC(=O)OC(C)(C)C [Compound 42] | – | > 40 | 0.353 ± 0.062 | inhibition at 10 µM [2]: 11 ± 5%
COc1ccc(/C=C/c2nc3c([nH]2)c(=O)n(C)c(=O)n3C)c(OC)c1OC [Compound 43a] | – | > 5 | 1.61 | inhibition at 10 µM [2]: 26 ± 10%
COc1ccc(/C=C/c2nc3c(c(=O)n(C)c(=O)n3C)n2C)c(OC)c1OC [Compound 43b] | 6.92 | 34 | 0.206 ± 0.081 | –
CCn1c(/C=C/c2cc(OC)c(OC)c(OC)c2)nc2c1c(=O)n(C)c(=O)n2C [Compound 44c, 7-Ethyl-1,3-trimethyl-8-[3,4,5-trimethoxystyryl]xanthine] | 6.29 | 7.1 | 0.882 ± 0.239 | –
COc1cc(/C=C/c2nc3c(c(=O)n(C)c(=O)n3C)n2CCO)cc(OC)c1OC [Compound 44d] | – | – | – | inhibition at 10 µM [2]: 26 ± 9%; inhibition at 10 µM ([4]; 1 h, at 10^-5, vs [3H]CGS21680, read-out: Percent displacement of specific binding (A2a)): 22%
C#CCn1c(/C=C/c2cc(OC)c(OC)c(OC)c2)nc2c1c(=O)n(C)c(=O)n2C [Compound 44e] | 4.04 | 7.7 | 0.525 ± 0.22 | –
CCCn1c(=O)c2c(nc(/C=C/c3cccc([N+](=O)[O-])c3)n2C)n(CCC)c1=O [Compound 48] | 0.272 ± 0.068 | 4.8 | 0.0562 ± 0.0068 | –
CCCn1c(=O)c2c(nc(/C=C/c3cccc(N)c3)n2C)n(CCC)c1=O [Compound 49] | 0.113 ± 0.021 | 6.0 | 0.0189 ± 0.0053 | Ki [4, 8]: ≤ 0.05 µM
CCCn1c(=O)c2c(nc(/C=C/c3cc(OC)cc(OC)c3)n2C)n(CCC)c1=O [Compound 53b, 1,3-Dipropyl-7-methyl-8-(3,5-dimethoxystyryl)xanthine] | 2.63 | 110 | 0.024 ± 0.006 | apparent A1 affinity versus DMSO concentration ([2]; 0.5 and 1% DMSO): somewhat dependent on DMSO concentration; solubility kinetic ([3]; concentration above which compound did not remain dissolved): 0.01 mM (≈ 4.12 µg/mL); solubility kinetic ([3]; theoretical concentration beyond which UV absorption decreases (supersaturation)): 0.02 mM (≈ 8.25 µg/mL); selectivity relative to 52b [4]: 5 fold; apparent affinity at A2 receptors versus DMSO concentration ([4]; 0.5% to 6% DMSO): constant within the range of 0.5% to 6% DMSO; Ki [4, 6]: 0.024 µM and ≤ 0.05 µM; A2-selectivity [4]: 110 fold
CCCn1c(=O)c2c(nc(/C=C/c3ccc(OC)c(OC)c3OC)n2C)n(CCC)c1=O [Compound 55b] | 0.379 ± 0.128 | 5.5 | 0.0685 ± 0.0126 | –
CCCn1c(=O)c2c(nc(/C=C/c3cc(OC)c(OC)cc3OC)n2C)n(CCC)c1=O [Compound 56b] | 0.689 ± 0.239 | – | 0.327 ± 0.052 | A1/A2a ratio ([4]; rat, brain membranes): 2.1
Cn1c(=O)c2c(nc(CCc3cccc(N)c3)n2C)n(C)c1=O [Compound 57, 1,3,7-Trimethyl-8-[2-(3-aminophenyl)ethyl]xanthine] | – | – | – | inhibition at 10 µM [2]: 15%; fold less potent at A2 receptors than 22b [4]: ~ 300 fold; Ki [4, 9]: 18 µM
COc1cccc2cc(-c3nc4c([nH]3)c(=O)n(C)c(=O)n4C)oc12 [Compound 58a] | – | – | – | Ki ([2]; Table IV): 1.7 µM; A1/A2 ratio ([4]; Table IV): 0.5; Ki [4, 9]: 3.9 µM
Cn1c(=O)c2c(ncn2C)n(C)c1=O [caffeine, 1,3,7-trimethylxanthine, reference compound] | – | – | – | Behavioral stimulation ([1]; mouse, in vivo, ip): +++
CCC/C=C/c1nc2c(c(=O)n(C)c(=O)n2C)n1C [n-propyl(Rβ = H)] | – | – | – | Ki ([2]; Table III): 6 µM; A1/A2 ratio ([4]; Table III): 3.8; Ki [4, 10]: 1.6 µM
C/C(=C\c1nc2c(c(=O)n(C)c(=O)n2C)n1C)c1ccccc1 [phenyl (Rβ = Me)] | – | – | – | Ki ([2]; Table III): 8.68 µM; A1/A2 ratio ([4]; Table III): 6; Ki [4, 10]: 1.42 µM

Continued, in another order:

Ki ([2]; Table I, rat A1 receptors) [µM] | A1/A2a ratio ([4]; Table I, ratio of Ki values) | Ki [4, 7] [µM] | Compound | further results
0.852 ± 0.277 | 3.2 | 0.269 ± 0.007 | CCn1c(=O)c2[nH]c(/C=C/c3cc(OC)c(OC)c(OC)c3)nc2n(CC)c1=O [Compound 45a] | –
0.078 ± 0.017 | 0.51 | 0.153 ± 0.031 | CCCn1c(=O)c2[nH]c(/C=C/c3cccc(F)c3)nc2n(CCC)c1=O [Compound 50a] | –
0.301 ± 0.064 | 9.1 | 0.033 ± 0.015 | CCCn1c(=O)c2c(nc(/C=C/c3cccc(F)c3)n2C)n(CCC)c1=O [Compound 50b] | Ki [4, 8]: ≤ 0.05 µM
0.167 ± 0.039 | 0.77 | 0.216 ± 0.066 | CCCn1c(=O)c2[nH]c(/C=C/c3cccc(Cl)c3)nc2n(CCC)c1=O [Compound 51a] | –
0.577 ± 0.042 | – | – | CCCn1c(=O)c2c(nc(/C=C/c3ccc(OC)c(OC)c3)n2C)n(CCC)c1=O [Compound 52b] | Ki [5]: 0.0078 µM
0.632 ± 0.152 | 3.0 | 0.21 ± 0.14 | CCCn1c(=O)c2[nH]c(/C=C/c3cc(OC)cc(OC)c3)nc2n(CCC)c1=O [Compound 53a] | –
0.146 ± 0.025 | 0.42 | 0.346 ± 0.097 | CCCn1c(=O)c2[nH]c(/C=C/c3cc(F)cc(F)c3)nc2n(CCC)c1=O [Compound 54a] | –
0.382 ± 0.04 | 7.2 | 0.053 ± 0.015 | CCCn1c(=O)c2c(nc(/C=C/c3cc(F)cc(F)c3)n2C)n(CCC)c1=O [Compound 54b] | Ki [4, 8]: ≤ 0.05 µM
0.097 ± 0.019 | 1.5 | 0.064 ± 0.0156 | CCCn1c(=O)c2[nH]c(/C=C/c3ccc(OC)c(OC)c3OC)nc2n(CCC)c1=O [Compound 55a] | –
0.143 ± 0.019 | 0.44 | 0.323 ± 0.074 | CCCn1c(=O)c2[nH]c(/C=C/c3cc(OC)c(OC)cc3OC)nc2n(CCC)c1=O [Compound 56a] | –

Reference: patent US5861405A, “S-substituted 1,3,7-trialkyl-xanthine derivatives” (priority 1994, dated 1999)
